Legend:
[1] = molecular target: T1, human σ1 receptor (Homo sapiens, UniProt Q99720); assay: Human σ1 receptor radioligand assay ([3H](+)-pentazocine, transfected HEK-293 membranes); conditions: class scale, read-out: Binding σ-1 Ki
T1 construct: expressed in transfected cells; host or cells: HEK-293
Procedure: Transfected HEK-293 membranes (7 μg) were incubated with 5 nM of [^3H](+)-pentazocine in assay buffer containing Tris-HCl 50 mM at pH 8. NBS (non-specific binding) was measured by adding 10 μM haloperidol. The binding of the test compound was measured at either one concentration (% inhibition at 1 or 10 μM) or five different concentrations to determine affinity values (Ki). Plates were incubated at 37° C. for 120 minutes. After the incubation period, the reaction mix was then transferred to MultiScreen HTS, FC plates (Millipore), filtered and plates were washed 3 times with ice-cold 10 mM Tris-HCL (pH7.4). Filters were dried and counted at approximately 40% efficiency in a MicroBeta scintillation counter (Perkin-Elmer) using EcoScint liquid scintillation cocktail.

[2] = molecular target: T2, human σ2/TMEM97 receptor (Homo sapiens, UniProt Q5BJF2); assay: Binding assay to human σ2/TMEM97 receptor ([3H]-DTG, transfected HEK-293 membranes); conditions: class scale, read-out: Binding σ-2 Ki
T2 construct: expressed in transfected cells; host or cells: HEK-293
T2 sequence (Q5BJF2 whole entry): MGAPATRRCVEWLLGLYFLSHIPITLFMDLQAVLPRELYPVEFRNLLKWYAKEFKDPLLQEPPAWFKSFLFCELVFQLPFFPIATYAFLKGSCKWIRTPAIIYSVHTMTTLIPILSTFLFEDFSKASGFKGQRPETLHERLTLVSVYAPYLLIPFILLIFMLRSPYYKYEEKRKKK
Procedure: Transfected HEK-293 membranes (15 μg) were incubated with 10 nM [^3H]-1,3-Di-o-tolylguanidine (DTG) in assay buffer containing Tris-HCl 50 mM at pH 8.0. NSB (non-specific binding) was measured by adding 10 μM haloperidol. The binding of the test compound was measured at either one concentration (% inhibition at 1 or 10 μM) or five different concentrations to determine affinity values (Ki). Plates were incubated at 25° C. for 120 minutes. After the incubation period, the reaction mix was transferred to MultiScreen HTS, FC plates (Millipore), filtered and washed 3 times with ice-cold 10 mM Tris-HCL (pH 8.0). Filters were dried and counted at approximately 40% efficiency in a MicroBeta scintillation counter (Perkin-Elmer) using EcoScint liquid scintillation cocktail.

T1 sequence (Q99720 whole entry): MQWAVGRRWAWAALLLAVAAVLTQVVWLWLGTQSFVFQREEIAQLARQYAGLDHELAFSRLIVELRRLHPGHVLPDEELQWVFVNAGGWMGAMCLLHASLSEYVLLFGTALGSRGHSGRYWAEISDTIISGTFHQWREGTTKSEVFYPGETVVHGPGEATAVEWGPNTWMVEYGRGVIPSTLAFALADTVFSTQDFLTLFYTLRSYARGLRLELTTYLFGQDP

Structure (SMILES) | Ki [1] [nM] | Ki [2] [nM]
Cc1cc(-c2nn(C)c(Cl)c2CN2CCC(CNCCC(C)(C)C)C2)no1 (stereo not drawn) [Example 1, N-((1-((5-Chloro-1-methyl-3-(5-methylisoxazol-3-yl)-1H-pyrazol-4-yl)methyl)pyrrolidin-3-yl)methyl)-3,3-dimethylbutan-1-amine] | 100 to 500 | > 1000
Cc1cc(-c2nn(C)c(Cl)c2CN2CCCCC(NCCC(C)C)C2)no1 (stereo not drawn) [Example 2, 1-((5-Chloro-1-methyl-3-(5-methylisoxazol-3-yl)-1H-pyrazol-4-yl)methyl)-N-isopentylazepan-3-amine] | 500 to 1000 | > 1000
Cc1cc(-c2nn(C)c(Cl)c2CN2CCCCC(NCCc3ccccc3)C2)no1 (stereo not drawn) [Example 3, 1-((5-Chloro-1-methyl-3-(5-methylisoxazol-3-yl)-1H-pyrazol-4-yl)methyl)-N-phenethylazepan-3-amine] | 500 to 1000 | > 1000
Cc1cc(-c2nn(C)c(Cl)c2CN2CCCCC(NCC3CCOCC3)C2)no1 (stereo not drawn) [Example 4, 1-((5-Chloro-1-methyl-3-(5-methylisoxazol-3-yl)-1H-pyrazol-4-yl)methyl)-N-((tetrahydro-2H-pyran-4-yl)methyl)azepan-3-amine] | > 1000 | 500 to 1000
Cc1cc(-c2nn(C)c(Cl)c2CN2CCC[C@@H](NCCC(C)C)C2)no1 [Example 5, (R)-1-((5-Chloro-1-methyl-3-(5-methylisoxazol-3-yl)-1H-pyrazol-4-yl)methyl)-N-isopentylpiperidin-3-amine] | 500 to 1000 | 100 to 500
Cc1cc(-c2nn(C)c(Cl)c2CN2CCC[C@H](NCCC(C)C)C2)no1 [Example 6, (S)-1-((5-Chloro-1-methyl-3-(5-methylisoxazol-3-yl)-1H-pyrazol-4-yl)methyl)-N-isopentylpiperidin-3-amine] | 100 to 500 | > 1000
Cc1cc(-c2nn(C)c(Cl)c2CN2CCC[C@H](NCCc3ccccc3)C2)no1 [Example 7, (S)-1-((5-Chloro-1-methyl-3-(5-methylisoxazol-3-yl)-1H-pyrazol-4-yl)methyl)-N-phenethylpiperidin-3-amine] | 100 to 500 | > 1000
Cc1cc(-c2nn(C)c(Cl)c2CN2CCCCC(NCCC(C)(C)C)C2)no1 (stereo not drawn) [Example 8, 1-((5-Chloro-1-methyl-3-(5-methylisoxazol-3-yl)-1H-pyrazol-4-yl)methyl)-N-(3,3-dimethylbutyl)azepan-3-amine] | 100 to 500 | 500 to 1000
CCCCNC1CCCCN(Cc2c(-c3cc(C)on3)nn(C)c2Cl)C1 (stereo not drawn) [Example 9, N-Butyl-1-((5-chloro-1-methyl-3-(5-methylisoxazol-3-yl)-1H-pyrazol-4-yl)methyl)azepan-3-amine] | > 1000 | 500 to 1000
Cc1cc(-c2nn(C)c(Cl)c2CN2CCCC[C@@H](NCCC(C)C)C2)no1 [Example 10, (R)-1-((5-Chloro-1-methyl-3-(5-methylisoxazol-3-yl)-1H-pyrazol-4-yl)methyl)-N-isopentylazepan-3-amine] | 100 to 500 | 100 to 500
Cc1cc(-c2nn(C)c(Cl)c2CN2CCC(NCCC(C)C)C2)no1 (stereo not drawn) [Example 11, 1-((5-Chloro-1-methyl-3-(5-methylisoxazol-3-yl)-1H-pyrazol-4-yl)methyl)-N-isopentylpyrrolidin-3-amine] | 500 to 1000 | 100 to 500
Cc1cc(-c2nn(C)c(Cl)c2CN2CCCC[C@H](NCCC(C)C)C2)no1 [Example 12, (S)-1-((5-Chloro-1-methyl-3-(5-methylisoxazol-3-yl)-1H-pyrazol-4-yl)methyl)-N-isopentylazepan-3-amine] | 100 to 500 | > 1000
Cc1cc(-c2nn(C)c(Cl)c2CN2CCC(NCCC(C)(C)C)C2)no1 (stereo not drawn) [Example 13, 1-((5-Chloro-1-methyl-3-(5-methylisoxazol-3-yl)-1H-pyrazol-4-yl)methyl)-N-(3,3-dimethylbutyl)pyrrolidin-3-amine] | 100 to 500 | 100 to 500
CCn1nc(-c2cc(C)on2)c(CN2CCCCC(NCCC(C)C)C2)c1Cl (stereo not drawn) [Example 14, 1-((5-Chloro-1-ethyl-3-(5-methylisoxazol-3-yl)-1H-pyrazol-4-yl)methyl)-N-isopentylazepan-3-amine] | 100 to 500 | > 1000
CC(C)c1cc(-c2nn(C)c(Cl)c2CN2CCCCC(NCCC(C)(C)C)C2)no1 (stereo not drawn) [Example 15, 1-((5-Chloro-3-(5-isopropylisoxazol-3-yl)-1-methyl-1H-pyrazol-4-yl)methyl)-N-(3,3-dimethylbutyl)azepan-3-amine] | 100 to 500 | > 1000
Cn1nc(-c2cc(C3CC3)on2)c(CN2CCCCC(NCCC(C)(C)C)C2)c1Cl (stereo not drawn) [Example 16, 1-((5-Chloro-3-(5-cyclopropylisoxazol-3-yl)-1-methyl-1H-pyrazol-4-yl)methyl)-N-(3,3-dimethylbutyl)azepan-3-amine] | 100 to 500 | > 1000
CC(C)CCNC1CCCCN(Cc2c(-c3cc(C(C)C)on3)nn(C)c2Cl)C1 (stereo not drawn) [Example 17, 1-((5-Chloro-3-(5-isopropylisoxazol-3-yl)-1-methyl-1H-pyrazol-4-yl)methyl)-N-isopentylazepan-3-amine] | 100 to 500 | > 1000
Cc1cc(-c2nn(-c3ccccc3)c(Cl)c2CN2CCCCC(NCCC(C)C)C2)no1 (stereo not drawn) [Example 18, 1-((5-Chloro-3-(5-methylisoxazol-3-yl)-1-phenyl-1H-pyrazol-4-yl)methyl)-N-isopentylazepan-3-amine] | 100 to 500 | > 1000
CC(C)CCNC1CCCCN(Cc2c(-c3cc(C4CC4)on3)nn(C)c2Cl)C1 (stereo not drawn) [Example 19, 1-((5-Chloro-3-(5-cyclopropylisoxazol-3-yl)-1-methyl-1H-pyrazol-4-yl)methyl)-N-isopentylazepan-3-amine] | 500 to 1000 | > 1000
CCc1cc(-c2nn(C)c(Cl)c2CN2CCCCC(NCCC(C)(C)C)C2)no1 (stereo not drawn) [Example 20, 1-((5-Chloro-3-(5-ethylisoxazol-3-yl)-1-methyl-1H-pyrazol-4-yl)methyl)-N-(3,3-dimethylbutyl)azepan-3-amine] | 100 to 500 | 100 to 500
CCc1cc(-c2nn(C)c(Cl)c2CN2CCCCC(NCCC(C)C)C2)no1 (stereo not drawn) [Example 21, 1-((5-Chloro-3-(5-ethylisoxazol-3-yl)-1-methyl-1H-pyrazol-4-yl)methyl)-N-isopentylazepan-3-amine] | 500 to 1000 | 100 to 500
CCn1nc(-c2cc(C)on2)c(CN2CCCCC(NCCC(C)(C)C)C2)c1Cl (stereo not drawn) [Example 22, 1-((5-Chloro-1-ethyl-3-(5-methylisoxazol-3-yl)-1H-pyrazol-4-yl)methyl)-N-(3,3-dimethylbutyl)azepan-3-amine] | 100 to 500 | 100 to 500
Cc1cc(-c2nn(C)c(Cl)c2CN2CCCC(NCCC(C)(C)C)CC2)no1 (stereo not drawn) [Example 23, 1-((5-Chloro-1-methyl-3-(5-methylisoxazol-3-yl)-1H-pyrazol-4-yl)methyl)-N-(3,3-dimethylbutyl)azepan-4-amine] | 100 to 500 | < 100
Cc1cc(-c2nn(C)c(Cl)c2CN2CCCC(NCCC(C)C)CC2)no1 (stereo not drawn) [Example 24, 1-((5-Chloro-1-methyl-3-(5-methylisoxazol-3-yl)-1H-pyrazol-4-yl)methyl)-N-isopentylazepan-4-amine] | > 1000 | < 100
Cn1nc(-c2ccccn2)c(CN2CCCCC(NCCC(C)(C)C)C2)c1Cl (stereo not drawn) [Example 25, 1-((5-Chloro-1-methyl-3-(pyridin-2-yl)-1H-pyrazol-4-yl)methyl)-N-(3,3-dimethylbutyl)azepan-3-amine] | < 100 | > 1000
CC(C)CCNC1CCCCN(Cc2c(-c3ccccn3)nn(C)c2Cl)C1 (stereo not drawn) [Example 26, 1-((5-Chloro-1-methyl-3-(pyridin-2-yl)-1H-pyrazol-4-yl)methyl)-N-isopentylazepan-3-amine] | 500 to 1000 | > 1000
Cc1conc1-c1nn(C)c(Cl)c1CN1CCCCC(NCCC(C)(C)C)C1 (stereo not drawn) [Example 27, 1-((5-Chloro-1-methyl-3-(4-methylisoxazol-3-yl)-1H-pyrazol-4-yl)methyl)-N-(3,3-dimethylbutyl)azepan-3-amine] | 100 to 500 | < 100
Cc1conc1-c1nn(C)c(Cl)c1CN1CCCCC(NCCC(C)C)C1 (stereo not drawn) [Example 28, 1-((5-Chloro-1-methyl-3-(4-methylisoxazol-3-yl)-1H-pyrazol-4-yl)methyl)-N-isopentylazepan-3-amine] | 100 to 500 | 100 to 500
Cc1cc(-c2nn(C)c(Cl)c2CN2CCC(CNCCC(C)C)C2)no1 (stereo not drawn) [Example 29, N-((1-((5-Chloro-1-methyl-3-(5-methylisoxazol-3-yl)-1H-pyrazol-4-yl)methyl)pyrrolidin-3-yl)methyl)-3-methylbutan-1-amine] | 500 to 1000 | 100 to 500
Cn1nc(-c2cccnc2)c(CN2CCCCC(NCCC(C)(C)C)C2)c1Cl (stereo not drawn) [Example 30, 1-((5-Chloro-1-methyl-3-(pyridin-3-yl)-1H-pyrazol-4-yl)methyl)-N-(3,3-dimethylbutyl)azepan-3-amine] | 100 to 500 | > 1000

Reference: patent US20240239781A1, “1H-PYRAZOLE DERIVATIVES AS SIGMA LIGANDS” (ACONDICIONAMIENTO TARRASENSE, priority 2021, published 2024)
